These results are taken from BindingDB's records for doi:10.1073/pnas.0608389103 (Johns Hopkins University, 2006).

Molecules are shown by their SMILES.

Test [1] addresses Methionine aminopeptidase 2 (Homo sapiens, UniProt P50579). Briefly: MetAP Inhibition Assay. As to conditions: pH 7.5; 22 °C. The procedure: (§1) The MetAP reaction with Co2+ as a cofactor is coupled to a prolyl aminopeptidase (ProAP) using Met-Pro-p-nitroanilide as substrate. MetAP-catalyzed cleavage of the N-terminal methionine produces prolyl-p-nitroanilide, which is rapidly hydrolyzed by ProAP to release a chromogenic product. […] The initial rate was calculated from the early part of the reaction progress curve (<5 min). Activity assays were performed in triplicate using eight to 16 concentrations of substrate or inhibitor.

For test [2], the target named is Methionine aminopeptidase 1 (Homo sapiens, UniProt P53582). The test is described as follows: MetAP Inhibition Assay. As to conditions: pH 7.5; 22 °C. The procedure: as §1

Methionine aminopeptidase 2, sequence (P50579 whole entry): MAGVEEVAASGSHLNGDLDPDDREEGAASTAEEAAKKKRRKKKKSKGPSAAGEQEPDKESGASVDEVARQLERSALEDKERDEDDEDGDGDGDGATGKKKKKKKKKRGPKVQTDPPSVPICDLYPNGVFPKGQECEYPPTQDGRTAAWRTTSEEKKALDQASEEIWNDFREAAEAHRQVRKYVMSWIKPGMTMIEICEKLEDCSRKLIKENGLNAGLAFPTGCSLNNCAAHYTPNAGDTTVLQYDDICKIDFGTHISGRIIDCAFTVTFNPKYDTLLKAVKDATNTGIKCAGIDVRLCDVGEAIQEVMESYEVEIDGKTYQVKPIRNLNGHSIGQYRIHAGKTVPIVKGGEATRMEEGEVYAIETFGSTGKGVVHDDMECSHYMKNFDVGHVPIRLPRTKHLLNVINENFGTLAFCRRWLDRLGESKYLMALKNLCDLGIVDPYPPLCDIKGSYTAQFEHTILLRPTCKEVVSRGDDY

For orientation: IC50 means the concentration needed to halve the response being measured. In test [1], `CC(C)(C)C(=O)Nc1cccnc1C(=O)Nc1nccs1` [3-(2,2-dimethylpropanamido)-N-(1,3-thiazol-2-yl)pyridine-2-carboxamide] gave an IC50 of over 500 µM. Take `CC(C)C=Nc1cccnc1C(=O)Nc1nccs1` [3-[(E)-(2-methylpropylidene)amino]-N-(1,3-thiazol-2-yl)pyridine-2-carboxamide]: the IC50 was 6.4 µM in test [2] and over 1000 µM in test [1].

In the case of `CCCCCCCC(=O)Nc1cccnc1C(=O)Nc1nccs1` [3-octanamido-N-(1,3-thiazol-2-yl)pyridine-2-carboxamide], the IC50 in test [2] and in test [1] was over 500 µM in each case. As to `CC(C)(C)OC(=O)Nc1cccnc1C(=O)Nc1nccs1` [tert-butyl N-[2-(1,3-thiazol-2-ylcarbamoyl)pyridin-3-yl]carbamate], the concentration for half-maximal inhibition (IC50) in test [1] is over 300 µM. For `O=C(CCc1ccccc1)Nc1cccnc1C(=O)Nc1nccs1` [3-(3-phenylpropanamido)-N-(1,3-thiazol-2-yl)pyridine-2-carboxamide], the half-maximal inhibitory concentration (IC50) in test [2] is 3.5 µM; in test [1] it was over 500 µM.
